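Five concentrations, 48 hours, 96-well plates. At the GI50, growth is halved. The concentration for full growth arrest is given as TGI.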
Assays:
Assay in all cases: DTP human tumour cell line panel, 48 h
K-562 leukemia = tested on: K-562 leukemia
SK-MEL-28 melanoma = tested on: SK-MEL-28 melanoma
MCF7 breast = tested on: MCF7 breast
COLO 205 colon = tested on: COLO 205 colon
SN12C renal = tested on: SN12C renal
SF-295 CNS = tested on: SF-295 CNS
HCT-116 colon = tested on: HCT-116 colon
DU-145 prostate = tested on: DU-145 prostate
OVCAR-5 ovarian = tested on: OVCAR-5 ovarian
SK-MEL-5 melanoma = tested on: SK-MEL-5 melanoma
NCI-H522 lung = tested on: NCI-H522 lung
MDA-MB-435 = tested on: MDA-MB-435
SW-620 colon = tested on: SW-620 colon
OVCAR-8 ovarian = tested on: OVCAR-8 ovarian
U251 CNS = tested on: U251 CNS
KM12 colon = tested on: KM12 colon
NCI/ADR-RES ovarian = tested on: NCI/ADR-RES ovarian
A498 renal = tested on: A498 renal
UO-31 renal = tested on: UO-31 renal
M14 melanoma = tested on: M14 melanoma
HCC-2998 colon = tested on: HCC-2998 colon
OVCAR-3 ovarian = tested on: OVCAR-3 ovarian
IGROV1 ovarian = tested on: IGROV1 ovarian
SF-268 CNS = tested on: SF-268 CNS
NCI-H460 lung = tested on: NCI-H460 lung
HS 578T breast = tested on: HS 578T breast
EKVX NSCLC = tested on: EKVX NSCLC
BT-549 breast = tested on: BT-549 breast
OVCAR-4 ovarian = tested on: OVCAR-4 ovarian
HCT-15 colon = tested on: HCT-15 colon

Structure (SMILES): O=c1[nH]c2ccccc2cc1CSc1ccc(Nc2nccc(-c3ccc(C(F)(F)F)cc3)n2)cc1
- GI50 (K-562 leukemia): 13.9 µM
- TGI (K-562 leukemia): > 100 µM
- GI50 (SK-MEL-28 melanoma): 20.6 µM
- TGI (SK-MEL-28 melanoma): > 100 µM
- GI50 (MCF7 breast): 4.55 µM
- TGI (MCF7 breast): > 100 µM
- GI50 (COLO 205 colon): 9.82 µM
- TGI (COLO 205 colon): 74.1 µM
- GI50 (SN12C renal): 16.7 µM
- TGI (SN12C renal): 40.8 µM
- GI50 (SF-295 CNS): 1.62 µM
- TGI (SF-295 CNS): 5.72 µM
- GI50 (HCT-116 colon): 0.0885 µM
- TGI (HCT-116 colon): 11.6 µM
- GI50 (DU-145 prostate): 13.2 µM
- TGI (DU-145 prostate): > 100 µM
- GI50 (OVCAR-5 ovarian): 30.6 µM
- TGI (OVCAR-5 ovarian): > 100 µM
- GI50 (SK-MEL-5 melanoma): 15.4 µM
- TGI (SK-MEL-5 melanoma): 45.9 µM
- GI50 (NCI-H522 lung): 6.19 µM
- TGI (NCI-H522 lung): 28.7 µM
- GI50 (MDA-MB-435): 11.9 µM
- TGI (MDA-MB-435): 55.4 µM
- GI50 (SW-620 colon): 5.53 µM
- TGI (SW-620 colon): > 100 µM
- GI50 (OVCAR-8 ovarian): 1.94 µM
- TGI (OVCAR-8 ovarian): 5.97 µM
- GI50 (U251 CNS): 0.198 µM
- TGI (U251 CNS): 2.61 µM
- GI50 (KM12 colon): 94.3 µM
- TGI (KM12 colon): > 100 µM
- GI50 (NCI/ADR-RES ovarian): 1.32 µM
- TGI (NCI/ADR-RES ovarian): 6.21 µM
- GI50 (A498 renal): 1.93 µM
- TGI (A498 renal): 3.84 µM
- GI50 (UO-31 renal): 4.82 µM
- TGI (UO-31 renal): 19.6 µM
- GI50 (M14 melanoma): 16.8 µM
- TGI (M14 melanoma): 61.3 µM
- GI50 (HCC-2998 colon): 6.89 µM
- TGI (HCC-2998 colon): > 100 µM
- GI50 (OVCAR-3 ovarian): 1.38 µM
- TGI (OVCAR-3 ovarian): 3.58 µM
- GI50 (IGROV1 ovarian): 17 µM
- TGI (IGROV1 ovarian): 43.6 µM
- GI50 (SF-268 CNS): 2.97 µM
- TGI (SF-268 CNS): 20.9 µM
- GI50 (NCI-H460 lung): 0.0643 µM
- TGI (NCI-H460 lung): 1.53 µM
- GI50 (HS 578T breast): 0.403 µM
- TGI (HS 578T breast): 4.64 µM
- GI50 (EKVX NSCLC): 3.5 µM
- TGI (EKVX NSCLC): 40.5 µM
- GI50 (BT-549 breast): 2.66 µM
- TGI (BT-549 breast): 17.1 µM
- GI50 (OVCAR-4 ovarian): 1.23 µM
- TGI (OVCAR-4 ovarian): 3.95 µM
- GI50 (HCT-15 colon): 2.27 µM

— PubChem BioAssay (NCI)
